13 compounds from US6583180B2, “Glucocorticoid receptor modulators” (Abbott Laboratories, priority 2001, dated 2003) can be followed below.

In general, inhibition refers to the percentage by which the read-out fell short of the control.

The assay addresses T1, Human glucocorticoid receptors (Homo sapiens, UniProt P04150).
T1 construct: made in house; host or cells: Sf9 insect cells, recombinant baculovirus (BAC-TO-BAC)
T1 sequence (P04150 1-777): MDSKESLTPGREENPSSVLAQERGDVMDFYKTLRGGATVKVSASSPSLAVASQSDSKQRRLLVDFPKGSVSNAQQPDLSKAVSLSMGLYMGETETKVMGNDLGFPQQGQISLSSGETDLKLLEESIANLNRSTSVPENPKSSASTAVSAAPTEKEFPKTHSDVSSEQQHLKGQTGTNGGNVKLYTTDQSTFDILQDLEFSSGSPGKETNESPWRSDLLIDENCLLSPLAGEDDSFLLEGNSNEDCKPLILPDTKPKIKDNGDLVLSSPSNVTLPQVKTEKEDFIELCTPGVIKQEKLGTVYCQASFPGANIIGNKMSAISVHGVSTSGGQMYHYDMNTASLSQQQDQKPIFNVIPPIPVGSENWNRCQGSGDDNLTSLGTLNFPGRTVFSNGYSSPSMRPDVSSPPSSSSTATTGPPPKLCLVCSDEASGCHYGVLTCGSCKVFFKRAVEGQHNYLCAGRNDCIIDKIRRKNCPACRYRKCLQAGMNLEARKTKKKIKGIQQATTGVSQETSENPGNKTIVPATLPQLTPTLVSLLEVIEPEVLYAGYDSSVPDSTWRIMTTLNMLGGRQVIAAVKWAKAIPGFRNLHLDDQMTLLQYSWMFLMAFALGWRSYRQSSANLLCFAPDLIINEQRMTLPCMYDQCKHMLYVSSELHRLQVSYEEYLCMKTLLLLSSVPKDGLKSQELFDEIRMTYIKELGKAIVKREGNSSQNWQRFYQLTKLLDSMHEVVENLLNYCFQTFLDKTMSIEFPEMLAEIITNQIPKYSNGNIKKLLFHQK
The experiment in a line: Radioligand filter binding assay, displacement of 3[H]-dexamethasone from hGR. The note with it: read-out: GR Binding (% Inhibition at 1.7 μM). From the text: Dexamethasone hereafter referred to as dex was purchased from SIGMA. […] Human glucocorticoid receptors were extracted from Sf9 cells infected with a recombinant baculovirus transfer vector containing the cloned hGR genes. Recombinant baculovirus was generated utilizing the BAC-TO-BAC expression system (Life Technologies) in accordance to instruction from the supplier. The hGR coding sequences were cloned into a baculovirus transfer vector by standard techniques. The recombinant baculoviruses expressing hGR were amplified and used to infect Sf9 cells. Infected cells were harvested 48 hrs post infection. […] The concentration of hGR in the extract was measured as specific ^3[H]-dex binding with the G25-assay as described in J. Steroid Biochem. Molec. […] The extract was aliquoted and stored at −70° C.
The filter binding assay: Dilution series of the test compounds and dex as reference were made from 10 mM (1 mM dex) stock solutions in DMSO. 10 μl of the dilutions was added in duplicates to the wells. The cell extracts were diluted 10 fold in EPMo+MTG buffer (1 mM EDTA, HPO4 20 mM (pH8), 6 mM MTG). […] 110 μl of the diluted ^3[H]-dex were added to the wells. The final concentration of hGR in the experiment was estimated to 1 nM. All preparations were made in […] on ice and with +4° C. temperated buffers. The plates were incubated over night at +4° C. (15-20 hours).
The incubation was stopped by filtration through GF/B filter on the Tomtec Cellharvester. The filtration on the Tomtec Cellharvester was programmed as follows: 1) Preparation before filtration with EP buffer (1 mM EDTA 20 mM HPO4 (pH8)) 2×[Wash/Asp 0.6 sec., Asp 0.5 sec.]; 2) Prewet of GF/B filter with EP+PEI buffer (EP buffer, 0.3% Polyethylenimine) [Asp 0.8 sec.]; 3) Filtration/harvesting of the 96-well incubation plate 3×[Wash/Asp 0.6 sec., Asp 0.5 sec.]. The GF/B filter was dried for at least 1 hour at 65° C. A MeltiLex scintillation wax was melted onto the filter with the Microsealer. The filter was placed in a samplebag, which was thereafter trimmed with scissors to fit the filter cassette. The cassette were placed in the Microbeta and measured for 1 min/position, returning ccpm (corrected counts per minute).
b=((bmax−bmin)/(1+(I/IC50)^S))+bminI
The Microbeta-instrument generates the mean cpm (counts per minute) value/minute and corrects for individual variations between the detectors thus generating corrected cpm values.
For `Cc1c(NS(=O)(=O)N(C)C)cccc1N(Cc1ccccc1)Cc1ccccc1` [Example 5, N′-[3-(dibenzylamino)-2-methylphenyl]-N,N-dimethylsulfamide], the inhibition at 1.7 µM stood at 75.2%.
The result for `Cc1c(NS(C)(=O)=O)cccc1N(Cc1ccccc1)Cc1ccc([N+](=O)[O-])cc1` [Example 8, N-{3-[benzyl(4-nitrobenzyl)amino]-2-methylphenyl}methanesulfonamide] reads 75.9%; that for `Cc1c(NS(C)(=O)=O)cccc1N(Cc1ccccc1)Cc1ccc2c(c1)OCO2` [Example 15, N-{3-[(1,3-benzodioxol-5-ylmethyl)(benzyl)amino]-2-methylphenyl}methanesulfonamide], 77.9%.
The result for `Cc1c(NS(C)(=O)=O)cccc1N(Cc1ccccc1)Cc1ccc2c(c1)OCCO2` [Example 16, N-{3-[benzyl(2,3-dihydro-1,4-benzodioxin-6-ylmethyl)amino]-2-methylphenyl}methanesulfonamide] reads 75.6%; that for `COc1ccc(CN(Cc2ccccc2C#N)c2cccc(NS(C)(=O)=O)c2C)c(F)c1` [Example 21, N-{3-[(2-cyanobenzyl)(2-fluoro-4-methoxybenzyl)amino]-2-methylphenyl}methanesulfonamide], 71.5%.
The result for `Cc1c(NS(C)(=O)=O)cccc1N(Cc1ccccc1Br)C(C#N)c1ccccc1` (stereo not shown) [Example 37, N-(3-{(2-bromobenzyl)[cyano(phenyl)methyl]amino}-2-methylphenyl)methanesulfonamide] reads 72.5%; that for `C=Cc1c(NS(C)(=O)=O)cccc1N(Cc1ccccc1)Cc1ccccc1` [Example 44, N-[3-(dibenzylamino)-2-vinylphenyl]methanesulfonamide], 89.2%.
For the compound `CCOC(=O)CCNC(=O)c1ccc(Oc2ccc(CN(Cc3ccc(F)cc3F)c3cccc(NS(C)(=O)=O)c3C)cc2)cc1` [Example 68, ethyl N-(4-{4-[((2,4-difluorobenzyl){2-methyl-3-[(methylsulfonyl)amino]phenyl}amino)methyl]phenoxy}benzoyl)-beta-alaninate], the inhibition at 1.7 µM was 90.4%.
The figure for `Cc1c(NS(C)(=O)=O)cccc1N(Cc1ccc(Oc2ccc(CCCC(=O)O)cc2)cc1)Cc1ccc(F)cc1F` [Example 74, 4-(4-{4-[((2,4-difluorobenzyl){2-methyl-3-[(methylsulfonyl)amino]phenyl}amino)methyl]phenoxy}phenyl)butanoic acid] is 97.2%; for `COC(=O)NCCOc1cccc(Oc2ccc(CN(Cc3ccccc3)c3cccc(NS(C)(=O)=O)c3C)cc2)c1` [Example 82, methyl 2-(3-{4-[(benzyl{2-methyl-3-[(methylsulfonyl)amino]phenyl}amino)methyl]phenoxy}phenoxy)ethylcarbamate] it is 96.9%; for `Cc1c(NS(C)(=O)=O)cccc1N(Cc1ccccc1)Cc1ccc(Oc2ccc(CCC(=O)OCc3ccccc3)cc2)cc1` [Example 98, benzyl 3-(4-{4-[(benzyl{2-methyl-3-[(methylsulfonyl)amino]phenyl}amino)methyl]phenoxy}phenyl)propanoate] it is 87.4%.
The figure for `Cc1c(NS(C)(=O)=O)cccc1N(Cc1ccccc1)Cc1ccc(Oc2cccc(OC3CCOC3=O)c2)cc1` (stereo not shown) [Example 112, N-{3-[benzyl(4-{3-[(2-oxotetrahydrofuran-3-yl)oxy]phenoxy}benzyl)amino]-2-methylphenyl}methanesulfonamide] is 96.9%.
The figure for `Cc1c(NS(C)(=O)=O)cccc1N(Cc1ccccc1)Cc1ccc(Oc2cccc(OC(CCO)C(=O)O)c2)cc1` (stereo not shown) [Example 113, 2-(3-{4-[(benzyl{2-methyl-3-[(methylsulfonyl)amino]phenyl}amino)methyl]phenoxy}phenoxy)-4-hydroxybutanoic acid] is 96.4%.
